Experimental data taken from the supplement of paper PMC10307832.

Tests used:
Test in all cases: relative viability (nuclei count vs DMSO), 5 days (fraction); higher = more cells survive
201T = test system: 201T
Summary of the method: (§1)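 Lung cancer cell lines in 1536-well plates got either a single drug or a fixed anchor-drug dose together with five library-drug doses (not always all listed) in √10 steps, by pin tool, on the day after seeding. Nuclei were counted after 5 days, and relative viability is the treated-to-vehicle ratio of nuclei counts. Values are medians of duplicate plates.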

BEN = test system: BEN
Summary of the method: as §1

LU99A = test system: LU99A
Summary of the method: as §1

LCLC-97TM1 = test system: LCLC-97TM1
Summary of the method: as §1

NCI-H1975 = test system: NCI-H1975
Summary of the method: as §1

NCI-H1395 = test system: NCI-H1395
Summary of the method: as §1

H3255 = test system: H3255
Summary of the method: as §1

NCI-H358 = test system: NCI-H358
Summary of the method: as §1

COR-L 105 = test system: COR-L 105
Summary of the method: as §1

EPLC-272H = test system: EPLC-272H
Summary of the method: as §1

NCI-H2087 = test system: NCI-H2087
Summary of the method: as §1

PC-3 [JPC-3] = test system: PC-3 [JPC-3]
Summary of the method: as §1

HCC-827 = test system: HCC-827
Summary of the method: as §1

SW 1573 = test system: SW 1573
Summary of the method: as §1

EKVX = test system: EKVX
Summary of the method: as §1

NCI-H647 = test system: NCI-H647
Summary of the method: as §1

HCC-44 = test system: HCC-44
Summary of the method: as §1

HOP-62 = test system: HOP-62
Summary of the method: as §1

LOU-NH91 = test system: LOU-NH91
Summary of the method: as §1

NCI-H1666 = test system: NCI-H1666
Summary of the method: as §1

NCI-H2085 = test system: NCI-H2085
Summary of the method: as §1

NCI-H1437 = test system: NCI-H1437
Summary of the method: as §1

CC1(C)CCC(c2ccc(Cl)cc2)=C(CN2CCN(c3ccc(C(=O)NS(=O)(=O)c4ccc(N[C@H](CCN5CCOCC5)CSc5ccccc5)c(S(=O)(=O)C(F)(F)F)c4)cc3)CC2)C1 [Navitoclax] + C[C@]1(O)C[C@@H](c2nc(-c3ccc4ccc(-c5ccccc5)nc4c3)c3c(N)nccn32)C1 [Linsitinib] (partner 1 µM)
relative viability (201T; first compound 0.005 µM): 1.11
relative viability (201T; first compound 0.01581 µM): 1.09
relative viability (201T; first compound 0.05 µM): 0.95
relative viability (201T; first compound 0.1581 µM): 1.05
relative viability (201T; first compound 0.5 µM): 1.01
relative viability (BEN; first compound 0.005 µM): 0.841
relative viability (BEN; first compound 0.01581 µM): 0.921
relative viability (BEN; first compound 0.05 µM): 0.958
relative viability (BEN; first compound 0.1581 µM): 0.911
relative viability (BEN; first compound 0.5 µM): 0.634
relative viability (LU99A; first compound 0.005 µM): 0.622
relative viability (LU99A; first compound 0.01581 µM): 0.67
relative viability (LU99A; first compound 0.05 µM): 0.444
relative viability (LU99A; first compound 0.1581 µM): 0.543
relative viability (LU99A; first compound 0.5 µM): 0.522
relative viability (LCLC-97TM1; first compound 0.005 µM): 0.189
relative viability (LCLC-97TM1; first compound 0.01581 µM): 0.186
relative viability (LCLC-97TM1; first compound 0.05 µM): 0.193
relative viability (LCLC-97TM1; first compound 0.1581 µM): 0.18
relative viability (LCLC-97TM1; first compound 0.5 µM): 0.172
relative viability (NCI-H1975; first compound 0.005 µM): 1.01
relative viability (NCI-H1975; first compound 0.01581 µM): 1.14
relative viability (NCI-H1975; first compound 0.05 µM): 1.07
relative viability (NCI-H1975; first compound 0.1581 µM): 0.869
relative viability (NCI-H1975; first compound 0.5 µM): 1
relative viability (NCI-H1395; first compound 0.005 µM): 0.938
relative viability (NCI-H1395; first compound 0.01581 µM): 1.34
relative viability (NCI-H1395; first compound 0.05 µM): 1.08
relative viability (NCI-H1395; first compound 0.1581 µM): 1.13
relative viability (NCI-H1395; first compound 0.5 µM): 1.27
relative viability (H3255; first compound 0.005 µM): 0.917
relative viability (H3255; first compound 0.01581 µM): 1.12
relative viability (H3255; first compound 0.05 µM): 0.877
relative viability (H3255; first compound 0.1581 µM): 0.892
relative viability (H3255; first compound 0.5 µM): 0.89
relative viability (NCI-H358; first compound 0.005 µM): 0.763
relative viability (NCI-H358; first compound 0.01581 µM): 0.956
relative viability (NCI-H358; first compound 0.05 µM): 0.813
relative viability (NCI-H358; first compound 0.1581 µM): 0.898
relative viability (NCI-H358; first compound 0.5 µM): 0.822
relative viability (COR-L 105; first compound 0.005 µM): 0.937
relative viability (COR-L 105; first compound 0.01581 µM): 1.02
relative viability (COR-L 105; first compound 0.05 µM): 1.05
relative viability (COR-L 105; first compound 0.1581 µM): 1.09
relative viability (COR-L 105; first compound 0.5 µM): 0.979
relative viability (EPLC-272H; first compound 0.005 µM): 1.29
relative viability (EPLC-272H; first compound 0.1581 µM): 1.26
relative viability (EPLC-272H; first compound 0.5 µM): 0.997
relative viability (NCI-H2087; first compound 0.005 µM): 0.919
relative viability (NCI-H2087; first compound 0.01581 µM): 0.898
relative viability (NCI-H2087; first compound 0.05 µM): 0.956
relative viability (NCI-H2087; first compound 0.1581 µM): 1.14
relative viability (NCI-H2087; first compound 0.5 µM): 0.871
relative viability (PC-3 [JPC-3]; first compound 0.005 µM): 0.964
relative viability (PC-3 [JPC-3]; first compound 0.01581 µM): 0.996
relative viability (PC-3 [JPC-3]; first compound 0.05 µM): 0.996
relative viability (PC-3 [JPC-3]; first compound 0.1581 µM): 0.983
relative viability (PC-3 [JPC-3]; first compound 0.5 µM): 0.969
relative viability (HCC-827; first compound 0.005 µM): 0.91
relative viability (HCC-827; first compound 0.01581 µM): 0.989
relative viability (HCC-827; first compound 0.05 µM): 0.864
relative viability (HCC-827; first compound 0.1581 µM): 0.926
relative viability (HCC-827; first compound 0.5 µM): 0.928
relative viability (SW 1573; first compound 0.005 µM): 0.856
relative viability (SW 1573; first compound 0.01581 µM): 0.841
relative viability (SW 1573; first compound 0.05 µM): 0.747
relative viability (SW 1573; first compound 0.1581 µM): 0.798
relative viability (SW 1573; first compound 0.5 µM): 0.898
relative viability (EKVX; first compound 0.005 µM): 0.953
relative viability (EKVX; first compound 0.01581 µM): 1.28
relative viability (EKVX; first compound 0.05 µM): 0.954
relative viability (EKVX; first compound 0.1581 µM): 0.953
relative viability (EKVX; first compound 0.5 µM): 1.01
relative viability (NCI-H647; first compound 0.005 µM): 1.05
relative viability (NCI-H647; first compound 0.01581 µM): 1.12
relative viability (NCI-H647; first compound 0.05 µM): 1.23
relative viability (NCI-H647; first compound 0.1581 µM): 1.17
relative viability (NCI-H647; first compound 0.5 µM): 1.05
relative viability (HCC-44; first compound 0.005 µM): 0.592
relative viability (HCC-44; first compound 0.01581 µM): 0.625
relative viability (HCC-44; first compound 0.05 µM): 0.594
relative viability (HCC-44; first compound 0.1581 µM): 0.649
relative viability (HCC-44; first compound 0.5 µM): 0.646
relative viability (HOP-62; first compound 0.005 µM): 0.976
relative viability (HOP-62; first compound 0.01581 µM): 0.871
relative viability (HOP-62; first compound 0.05 µM): 0.955
relative viability (HOP-62; first compound 0.1581 µM): 0.767
relative viability (HOP-62; first compound 0.5 µM): 0.923
relative viability (LOU-NH91; first compound 0.005 µM): 0.974
relative viability (LOU-NH91; first compound 0.01581 µM): 0.999
relative viability (LOU-NH91; first compound 0.05 µM): 0.933
relative viability (LOU-NH91; first compound 0.1581 µM): 1.02
relative viability (LOU-NH91; first compound 0.5 µM): 0.842
relative viability (NCI-H1666; first compound 0.005 µM): 0.923
relative viability (NCI-H1666; first compound 0.01581 µM): 0.954
relative viability (NCI-H1666; first compound 0.05 µM): 0.82
relative viability (NCI-H1666; first compound 0.1581 µM): 0.705
relative viability (NCI-H1666; first compound 0.5 µM): 0.829
relative viability (NCI-H2085; first compound 0.005 µM): 0.828
relative viability (NCI-H2085; first compound 0.01581 µM): 0.96
relative viability (NCI-H2085; first compound 0.05 µM): 0.831
relative viability (NCI-H2085; first compound 0.1581 µM): 1
relative viability (NCI-H2085; first compound 0.5 µM): 0.947
relative viability (NCI-H1437; first compound 0.005 µM): 0.952
relative viability (NCI-H1437; first compound 0.01581 µM): 1.08
relative viability (NCI-H1437; first compound 0.05 µM): 1.02
relative viability (NCI-H1437; first compound 0.1581 µM): 1.09
relative viability (NCI-H1437; first compound 0.5 µM): 0.95
